Results as given in US20260007681A1, “INDOLE DERIVATIVES AS ESTROGEN RECEPTOR DEGRADERS” (REGENTS OF THE UNIVERSITY OF MICHIGAN, priority 2022, published 2026).

Each molecule was assayed against ER (Homo sapiens (Human), UniProt P03372) (assay: Western blot analysis (Compounds B1-B278)). Settings: ER degradation by traditional Western blot; DC50 classes.
Assay type: cell-based
Experimental: Western Blot Analysis. The cells that are treated with the compounds are lysed in Radioimmunoprecipitation Assay Protein Lysis and Extraction Buffer (e.g., 25 mmol/L Tris.HCl, pH 7.6, 150 mmol/L NaCl, 1% Nonidet P-40, 1% sodium deoxycholate, and 0.1% sodium dodecyl sulfate) containing proteinase inhibitor cocktail. Equal amounts of total protein are electrophoresed through 10% SDS-polyacrylamide gels after determination of protein concentration by BCA assay. The separated protein bands are transferred onto PVDF membranes and blotted against different antibodies. The blots are scanned, and the band intensities are quantified (e.g., by using GelQuant.NET software provided by biochemlabsolutions.com). The relative mean intensity of target proteins is expressed after normalization to the intensity of glyceraldehyde-3-phosphate dehydrogenase bands.
Western Blot Analysis. Western blot analysis was performed essentially as described previously. The cells treated with indicated compounds were lysed in Radioimmunoprecipitation Assay Protein Lysis and Extraction Buffer (25 mmol/L Tris.HCl, pH 7.6, 150 mmol/L NaCl, 1% Nonidet P-40, 1% sodium deoxycholate, and 0.1% sodium dodecyl sulfate) containing proteinase inhibitor cocktail (Roche Diagnostics, Mannheim, Germany). Equal amounts of total protein were electrophoresed through 10% SDS-polyacrylamide gels after determination of protein concentration by BCA assay (Fisher Scientific, Pittsburgh, PA). The separated protein bands were transferred onto PVDF membranes (GE Healthcare Life Sciences, Marlborough, MA) and blotted against different antibodies, as indicated. The blots were scanned, and the band intensities were quantified using GelQuant.NET software provided by biochemlabsolutions.com. The relative mean intensity of target proteins was expressed after normalization to the intensity of glyceraldehyde-3-phosphate dehydrogenase bands.

Sequence of ER (P03372 whole entry): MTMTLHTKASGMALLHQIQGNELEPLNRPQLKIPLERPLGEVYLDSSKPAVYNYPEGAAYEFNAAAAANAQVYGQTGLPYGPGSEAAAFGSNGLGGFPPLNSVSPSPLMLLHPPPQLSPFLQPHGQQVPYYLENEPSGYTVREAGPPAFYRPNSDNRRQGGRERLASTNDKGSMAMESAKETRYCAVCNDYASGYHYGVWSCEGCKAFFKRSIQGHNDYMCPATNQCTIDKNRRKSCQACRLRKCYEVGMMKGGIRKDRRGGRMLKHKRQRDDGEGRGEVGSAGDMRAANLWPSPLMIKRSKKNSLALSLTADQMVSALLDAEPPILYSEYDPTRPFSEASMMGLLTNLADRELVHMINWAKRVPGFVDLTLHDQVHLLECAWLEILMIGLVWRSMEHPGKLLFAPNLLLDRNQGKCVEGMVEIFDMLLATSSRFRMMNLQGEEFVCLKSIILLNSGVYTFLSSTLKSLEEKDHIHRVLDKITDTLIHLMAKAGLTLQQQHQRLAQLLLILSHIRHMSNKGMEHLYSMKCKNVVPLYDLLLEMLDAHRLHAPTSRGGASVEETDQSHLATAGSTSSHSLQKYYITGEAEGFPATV

Compound | Traditional Western Degradation Potency
C[C@@H]1Cc2c([nH]c3ccccc23)[C@@H](c2c(F)cc(N3CCC4(CCN(C(=O)CN5Cc6cc7c(cc6C5)C(=O)N(C5CCC(=O)NC5=O)C7=O)CC4)CC3)cc2F)N1CC(F)F (stereo partly drawn) [Compound B52, 6-(2-(9-(4-((1R,3R)-2-(2,2-difluoroethyl)-3-methyl-2,3,4,9-tetrahydro-1H-pyrido[3,4-b]indol-1-yl)-3,5-difluorophenyl)-3,9-diazaspiro[5.5]undecan-3-yl)-2-oxoethyl)-2-(2,6-dioxopiperidin-3-yl)-6,7-dihydropyrrolo[3,4-f]isoindole-1,3(2H,5H)-dione] | A (“A”: <10 nM)
C[C@@H]1Cc2c([nH]c3ccccc23)[C@@H](c2c(F)cc(N3CCCC4(CN(C(=O)CN5Cc6cc7c(cc6C5)C(=O)N(C5CCC(=O)NC5=O)C7=O)C4)C3)cc2F)N1CC(F)F (stereo partly drawn) [Compound B24, 6-(2-(6-(4-((1R,3R)-2-(2,2-difluoroethyl)-3-methyl-2,3,4,9-tetrahydro-1H-pyrido[3,4-b]indol-1-yl)-3,5-difluorophenyl)-2,6-diazaspiro[3.5]nonan-2-yl)-2-oxoethyl)-2-(2,6-dioxopiperidin-3-yl)-6,7-dihydropyrrolo[3,4-f]isoindole-1,3(2H,5H)-dione] | B (“B”: 10-100 nM)
C[C@@H]1Cc2c([nH]c3ccccc23)[C@@H](c2c(F)cc(N3CC4(CCCN(CC(=O)N5Cc6cc7c(cc6C5)C(=O)N(C5CCC(=O)NC5=O)C7)C4)C3)cc2F)N1CC(F)F (stereo partly drawn) [Compound B46, 3-(6-(2-(2-(4-((1R,3R)-2-(2,2-difluoroethyl)-3-methyl-2,3,4,9-tetrahydro-1H-pyrido[3,4-b]indol-1-yl)-3,5-difluorophenyl)-2,6-diazaspiro[3.5]nonan-6-yl)acetyl)-1-oxo-3,5,6,7-tetrahydropyrrolo[3,4-f]isoindol-2(1H)-yl)piperidine-2,6-dione] | B (“B”: 10-100 nM)
C[C@@H]1Cc2c([nH]c3ccccc23)[C@@H](c2c(F)cc(N3CC4(CC(C(=O)N5CCC(CN6Cc7cc8c(cc7C6)C(=O)N(C6CCC(=O)NC6=O)C8=O)CC5)C4)C3)cc2F)N1CC(F)F (stereo partly drawn) [Compound B55, 6-((1-(2-(4-((1R,3R)-2-(2,2-difluoroethyl)-3-methyl-2,3,4,9-tetrahydro-1H-pyrido[3,4-b]indol-1-yl)-3,5-difluorophenyl)-2-azaspiro[3.3]heptane-6-carbonyl)piperidin-4-yl)methyl)-2-(2,6-dioxopiperidin-3-yl)-6,7-dihydropyrrolo[3,4-f]isoindole-1,3(2H,5H)-dione] | A (“A”: <10 nM)
C[C@@H]1Cc2c([nH]c3ccccc23)[C@@H](c2c(F)cc(N3CCC(N4CCC(CN5Cc6cc7c(cc6C5)C(=O)N(C5CCC(=O)NC5=O)C7=O)CC4)CC3)cc2F)N1CC(F)F (stereo partly drawn) [Compound B58, 6-((1′-(4-((1R,3R)-2-(2,2-difluoroethyl)-3-methyl-2,3,4,9-tetrahydro-1H-pyrido[3,4-b]indol-1-yl)-3,5-difluorophenyl)-[1,4′-bipiperidin]-4-yl)methyl)-2-(2,6-dioxopiperidin-3-yl)-6,7-dihydropyrrolo[3,4-f]isoindole-1,3(2H,5H)-dione] | C (“C”: >100 nM)
C[C@@H]1Cc2c([nH]c3ccccc23)[C@@H](c2c(F)cc(-c3ccc(C(=O)N4CCC(N5Cc6cc7c(cc6C5)C(=O)N(C5CCC(=O)NC5=O)C7=O)CC4)nn3)cc2F)N1CC(F)F (stereo partly drawn) [Compound B91, 6-(1-(6-(4-((1R,3R)-2-(2,2-difluoroethyl)-3-methyl-2,3,4,9-tetrahydro-1H-pyrido[3,4-b]indol-1-yl)-3,5-difluorophenyl)pyridazine-3-carbonyl)piperidin-4-yl)-2-(2,6-dioxopiperidin-3-yl)-6,7-dihydropyrrolo[3,4-f]isoindole-1,3(2H,5H)-dione] | B (“B”: 10-100 nM)

The remaining lines, values ahead:

Traditional Western Degradation Potency | Compound
B (“B”: 10-100 nM) | C[C@@H]1Cc2c([nH]c3ccccc23)[C@@H](c2c(F)cc(N3CC(C(=O)N4CC(N5Cc6cc7c(cc6C5)C(=O)N(C5CCC(=O)NC5=O)C7=O)C4)C3)cc2F)N1CC(F)F (stereo partly drawn) [Compound B202, 6-(1-(1-(4-((1R,3R)-2-(2,2-difluoroethyl)-3-methyl-2,3,4,9-tetrahydro-1H-pyrido[3,4-b]indol-1-yl)-3,5-difluorophenyl)azetidine-3-carbonyl)azetidin-3-yl)-2-(2,6-dioxopiperidin-3-yl)-6,7-dihydropyrrolo[3,4-f]isoindole-1,3(2H,5H)-dione]
A (“A”: <10 nM) | C[C@@H]1Cc2c([nH]c3ccccc23)[C@@H](c2c(F)cc(N3CCC4(CCN(C(=O)CN5Cc6cc7c(cc6C5)C(=O)N(C5CCC(=O)NC5=O)C7)C4)CC3)cc2F)N1CC(F)F (stereo partly drawn) [Compound B195, 3-(6-(2-(8-(4-((1R,3R)-2-(2,2-difluoroethyl)-3-methyl-2,3,4,9-tetrahydro-1H-pyrido[3,4-b]indol-1-yl)-3,5-difluorophenyl)-2,8-diazaspiro[4.5]decan-2-yl)-2-oxoethyl)-1-oxo-3,5,6,7-tetrahydropyrrolo[3,4-f]isoindol-2(1H)-yl)piperidine-2,6-dione]
B (“B”: 10-100 nM) | C[C@@H]1Cc2c([nH]c3ccccc23)[C@@H](c2ccc(C3CCC(C(=O)N4CCC(N5Cc6cc7c(cc6C5)C(=O)N(C5CCC(=O)NC5=O)C7=O)CC4)CC3)cc2F)N1CC(F)F (stereo partly drawn) [Compound B233, 6-(1-(4-(4-((1R,3R)-2-(2,2-difluoroethyl)-3-methyl-2,3,4,9-tetrahydro-1H-pyrido[3,4-b]indol-1-yl)-3-fluorophenyl)cyclohexane-1-carbonyl)piperidin-4-yl)-2-(2,6-dioxopiperidin-3-yl)-6,7-dihydropyrrolo[3,4-f]isoindole-1,3(2H,5H)-dione]
C (“C”: >100 nM) | COc1cc([C@H]2CC[C@H](C(=O)N3CCC(N4Cc5cc6c(cc5C4)C(=O)N(C4CCC(=O)NC4=O)C6=O)CC3)CC2)ncc1[C@@H]1c2[nH]c3ccccc3c2C[C@@H](C)N1CC(F)F (stereo partly drawn) [Compound B108, 6-(1-((1R,4r)-4-(5-((1R,3R)-2-(2,2-difluoroethyl)-3-methyl-2,3,4,9-tetrahydro-1H-pyrido[3,4-b]indol-1-yl)-4-methoxypyridin-2-yl)cyclohexane-1-carbonyl)piperidin-4-yl)-2-(2,6-dioxopiperidin-3-yl)-6,7-dihydropyrrolo[3,4-f]isoindole-1,3(2H,5H)-dione]
B (“B”: 10-100 nM) | C[C@@H]1Cc2c([nH]c3ccccc23)[C@@H](c2c(F)cc(N3CCC4(CCN(C(=O)CN5Cc6cc7c(cc6C5)C(=O)N(C5CCC(=O)NC5=O)C7=O)CC4)CC3)cc2F)N1CC(F)(F)F (stereo partly drawn) [Compound B199, 6-(2-(9-(3,5-difluoro-4-((1R,3R)-3-methyl-2-(2,2,2-trifluoroethyl)-2,3,4,9-tetrahydro-1H-pyrido[3,4-b]indol-1-yl)phenyl)-3,9-diazaspiro[5.5]undecan-3-yl)-2-oxoethyl)-2-(2,6-dioxopiperidin-3-yl)-6,7-dihydropyrrolo[3,4-f]isoindole-1,3(2H,5H)-dione]
C (“C”: >100 nM) | C[C@@H]1Cc2c([nH]c3ccccc23)[C@@H](c2c(F)cc(C3CCC(C(=O)N4CCC(N5Cc6cc7c(cc6C5)C(=O)N(C5CCC(=O)NC5=O)C7=O)CC4)CC3)cc2F)N1CC(F)(F)CO (stereo partly drawn) [Compound B110, 6-(1-(4-(4-((1R,3R)-2-(2,2-difluoro-3-hydroxypropyl)-3-methyl-2,3,4,9-tetrahydro-1H-pyrido[3,4-b]indol-1-yl)-3,5-difluorophenyl)cyclohexane-1-carbonyl)piperidin-4-yl)-2-(2,6-dioxopiperidin-3-yl)-6,7-dihydropyrrolo[3,4-f]isoindole-1,3(2H,5H)-dione]
C (“C”: >100 nM) | C[C@@H]1Cc2c([nH]c3ccccc23)[C@@H](c2c(F)cc(N3CCC(C(=O)N4CCC(CN5Cc6cc7c(cc6C5)C(=O)N(C5CCC(=O)NC5=O)C7=O)CC4)CC3)cc2F)N1CC(F)F (stereo partly drawn) [Compound B206, 6-((1-(1-(4-((1R,3R)-2-(2,2-difluoroethyl)-3-methyl-2,3,4,9-tetrahydro-1H-pyrido[3,4-b]indol-1-yl)-3,5-difluorophenyl)piperidine-4-carbonyl)piperidin-4-yl)methyl)-2-(2,6-dioxopiperidin-3-yl)-6,7-dihydropyrrolo[3,4-f]isoindole-1,3(2H,5H)-dione]
A (“A”: <10 nM) | C[C@@H]1Cc2c([nH]c3ccccc23)[C@@H](c2cnc(N3CCC4(CCN(C(=O)CN5Cc6cc7c(cc6C5)C(=O)N(C5CCC(=O)NC5=O)C7=O)CC4)CC3)nc2)N1CC(F)(F)F (stereo partly drawn) [Compound B216, 2-(2,6-dioxopiperidin-3-yl)-6-(2-(9-(5-((1R,3R)-3-methyl-2-(2,2,2-trifluoroethyl)-2,3,4,9-tetrahydro-1H-pyrido[3,4-b]indol-1-yl)pyrimidin-2-yl)-3,9-diazaspiro[5.5]undecan-3-yl)-2-oxoethyl)-6,7-dihydropyrrolo[3,4-f]isoindole-1,3(2H,5H)-dione]
